Source: US9663527B2, “Factor XIa inhibitors” (Merck Sharp & Dohme Corp., priority 2014, dated 2017)
Structures can show the parent of a compound that is named as a salt.

These molecules were tested against purified human Factor XIa (Homo sapiens (Human), UniProt P03951) (assay: Factor XIa Assay). Details: purified human Factor XIa 40 pM, substrate Z-Gly-Pro-Arg-AFC 100 μM, pH 7.4; read-out: hFactor XIa Ki.
Assay type: biochemical
Protocol: The effectiveness of a compound of the present invention as an inhibitor of Coagulation Factor XIa can be determined using a relevant purified serine protease, and an appropriate synthetic substrate. The rate of hydrolysis of the chromogenic or fluorogenic substrate by the relevant serine protease was measured both in the absence and presence of compounds of the present invention. Assays were conducted at room temperature or at 37° C. […] A decrease in the rate of fluorescence change in the presence of inhibitor is indicative of enzyme inhibition. Such methods are known to one skilled in the art. The results of this assay are expressed as the inhibitory constant, Ki.
Factor XIa determinations were made in 50 mM HEPES buffer at pH 7.4 containing 150 mM NaCl, 5 mM CaCl2, and 0.1% PEG 8000 (polyethylene glycol; JT Baker or Fisher Scientific). Determinations were made using purified human Factor XIa at a final concentration of 40 pM (Sekisui Diagnostics) and the synthetic substrate, Z-Gly-Pro-Arg-AFC, TFA salt (Sigma #C0980) at a concentration of 100 μM.
Activity assays were performed by diluting a stock solution of substrate at least tenfold to a final concentration ≦0.1 Km into a solution containing enzyme or enzyme equilibrated with inhibitor. Times required to achieve equilibration between enzyme and inhibitor were determined in control experiments. Initial velocities of product formation in the absence (Vo) or presence of inhibitor (Vi) were measured. Assuming competitive inhibition, and that unity is negligible compared Km/[S], [I]/e, and [I]/e (where [S], [I], and e respectively represent the total concentrations, of substrate, inhibitor and enzyme), the equilibrium constant (Ki) for dissociation of the inhibitor from the enzyme can be obtained from the dependence of Vo/Vi on [I] shown in the following equation. Vo/Vi=1+[I]/Ki

Chain of purified human Factor XIa (P03951 388-625): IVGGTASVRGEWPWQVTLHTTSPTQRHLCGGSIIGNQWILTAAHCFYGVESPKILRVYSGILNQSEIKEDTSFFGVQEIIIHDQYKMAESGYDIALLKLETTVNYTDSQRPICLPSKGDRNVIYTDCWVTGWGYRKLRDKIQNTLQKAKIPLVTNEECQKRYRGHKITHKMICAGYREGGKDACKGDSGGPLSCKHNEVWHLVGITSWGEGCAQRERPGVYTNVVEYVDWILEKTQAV
Chain of purified human Factor XIa (P03951 19-387 partner): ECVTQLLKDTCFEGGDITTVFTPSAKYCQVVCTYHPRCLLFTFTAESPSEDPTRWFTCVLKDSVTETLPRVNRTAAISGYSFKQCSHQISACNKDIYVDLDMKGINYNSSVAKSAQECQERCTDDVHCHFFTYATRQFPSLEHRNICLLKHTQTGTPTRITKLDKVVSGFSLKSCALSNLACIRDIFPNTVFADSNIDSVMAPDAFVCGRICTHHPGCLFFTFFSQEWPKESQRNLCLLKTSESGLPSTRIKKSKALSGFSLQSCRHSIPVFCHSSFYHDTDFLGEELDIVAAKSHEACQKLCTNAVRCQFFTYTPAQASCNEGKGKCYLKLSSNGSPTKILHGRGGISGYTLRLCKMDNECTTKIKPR

| Ki [nM] | Structure (SMILES) |
| --- | --- |
| 70 | COC(=O)Nc1ccc2c(c1)NC(=O)CCCC[C@H](N1Cc3cc(CN)ccc3C1=O)c1nc-2c[nH]1 [Example 3, Methyl [(7S)-7-[5-(aminomethyl)-1-oxo-1,3-dihydro-2H-isoindol-2-yl]-2-oxo-1,2,3,4,5,6,7,9-octahydro-11,8-(azeno)-1,9-benzodiazacyclotridecin-14-yl]carbamate] |
| 2.4 | COC(=O)Nc1ccc2c(c1)NC(=O)CCCC[C@H](N1CCc3cc(CN)ccc3C1=O)c1nc-2c[nH]1 [Example 1, Methyl [(7S)-7-[6-(aminomethyl)-1-oxo-3,4-dihydroisoquinolin-2(1H)-yl]-2-oxo-1,2,3,4,5,6,7,9-octahydro-11,8-(azeno)-1,9-benzodiazacyclotridecin-14-yl]carbamate] |
| 3.9 | COC(=O)Nc1ccc2c(c1)NC(=O)CCCC[C@H](N1CCCc3cc(CN)ccc3C1=O)c1nc-2c[nH]1 [Example 2, Methyl [(7S)-7-[7-(aminomethyl)-1-oxo-1,3,4,5-tetrahydro-2H-2-benzazepin-2-yl]-2-oxo-1,2,3,4,5,6,7,9-octahydro-11,8-(azeno)-1,9-benzodiazacyclotridecin-14-yl]carbamate trifluoroacetate] |
| 170 | NCc1ccc2c(c1)CCN([C@H]1CCCCC(=O)Nc3ccc(F)cc3-c3ccnc1c3)C2=O [Example 4, 9-(6-(aminomethyl)-1-oxo-3,4-dihydroisoquinolin-2(1H)-yl)-2^5-fluoro-3-aza-1(4,2)-pyridina-2(1,2)-benzenacyclononaphan-4-one] |
